Several values for one entry are separate records, joined by “and”; a condition that tells them apart may be missing. Equal entries are not always repeated. Entries after “also recorded” stand apart in the source; their conditions may differ.
Experiments:
[1] = test system: Cov434-AMHRII Asc1a5 (cell line of human ovarian cancer transfected with cDNA AMHRII); assay: Anti-tumour activity of 3C23K alone or with carboplatin in Cov434-AMHRII Asc1a5 xenograft (tumour volume, T/C ratio, statistical analysis); format: in vivo, female Swiss nude mouse
Method: The 3C23K antibody was evaluated according to the following scheme: 2 times per week for 6 weeks, for a total of 12 injections at about 10 mg/kg/injection, said administration regimen being designated below as “Q3-4D12”. Another group of mice was treated with an irrelevant antibody LFB-R565, administered at about 10 mg/kg/injection, according to the regimen Q3-4D12.
Carboplatin was evaluated, at a sub-optimum dose, i.e. about 60 mg/kg/injection, according to the following scheme: once a week, for 4 weeks, said administration regimen being designated below as “Q7D4”.
Carboplatin was also evaluated in combination with the 3C23K antibody or with the irrelevant antibody LFB-R565. Carboplatin was administered at about 60 mg/kg/injection according to the Q7D4 regimen and the 3C23K antibody or the irrelevant antibody LFB-R565 at about 10 mg/kg/injection according to the regimen Q3-4D12.
The mice were randomized on D11, when the volume of the tumours was between 50 and 158 mm^3, and the treatments began on D13 (9 mice per group).
The tumours were usually measured twice weekly.
The curves of the individual volume of the tumours were plotted.
In one experiment with 9 mice per group, the curves and analyses were therefore stopped when fewer than 8 values per group had been obtained (8 mice alive).
A Kruskal-Wallis test was also carried out.

[2] = molecular target: T1, human anti-Müllerian hormone type II receptor (AMHR-II) (Homo sapiens, UniProt Q16671); conditions: compared with unmutated humanized and chimeric 12G4; cited from earlier work
T1 sequence (Q16671 18-573): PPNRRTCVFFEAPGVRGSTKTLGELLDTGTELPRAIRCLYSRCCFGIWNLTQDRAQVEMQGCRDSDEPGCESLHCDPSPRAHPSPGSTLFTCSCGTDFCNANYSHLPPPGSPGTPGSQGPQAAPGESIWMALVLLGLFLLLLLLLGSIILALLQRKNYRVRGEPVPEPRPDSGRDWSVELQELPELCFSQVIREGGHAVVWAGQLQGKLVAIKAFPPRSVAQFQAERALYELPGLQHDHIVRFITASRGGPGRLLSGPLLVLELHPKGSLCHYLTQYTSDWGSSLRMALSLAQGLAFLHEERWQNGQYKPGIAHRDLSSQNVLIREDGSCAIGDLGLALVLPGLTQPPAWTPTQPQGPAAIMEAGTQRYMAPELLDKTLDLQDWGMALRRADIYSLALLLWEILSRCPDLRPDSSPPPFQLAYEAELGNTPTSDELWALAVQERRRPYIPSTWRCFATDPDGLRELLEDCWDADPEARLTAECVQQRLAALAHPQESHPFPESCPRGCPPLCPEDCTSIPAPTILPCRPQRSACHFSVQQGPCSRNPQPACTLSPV

[3] = D11, randomization, before treatment

3C23K: mutated humanized 12G4 monoclonal antibody binding AMHR-II, produced by the 3C23K clone; light chain SEQ ID NO: 11, heavy chain SEQ ID NO: 13
Individual tumour volume [1, 3]: 98 mm^3 and 90 mm^3 and 61 mm^3 and 80 mm^3 and 57 mm^3 and 147 mm^3 and 113 mm^3 and 72 mm^3 | Mean tumour volume [1, 3]: 88 mm^3 | Median tumour volume [1, 3]: 80 mm^3 | Individual tumour volume ([1]; D14): 104 mm^3 and 179 mm^3 and 60 mm^3 and 72 mm^3 and 67 mm^3 and 216 mm^3 and 166 mm^3 and 84 mm^3 | Mean tumour volume ([1]; D14): 111 mm^3 | Median tumour volume ([1]; D14): 84 mm^3 | Individual tumour volume ([1]; D18): 72 mm^3 (2×) and 88 mm^3 and 36 mm^3 and 21 mm^3 and 41 mm^3 and 140 mm^3 and 80 mm^3 | Mean tumour volume ([1]; D18): 67 mm^3 | Median tumour volume ([1]; D18): 72 mm^3 | Individual tumour volume ([1]; D22): 60 mm^3 and 150 mm^3 and 30 mm^3 and 0 mm^3 and 36 mm^3 and 131 mm^3 and 77 mm^3 and 158 mm^3 | Mean tumour volume ([1]; D22): 79 mm^3 | Median tumour volume ([1]; D22): 70 mm^3 | Individual tumour volume ([1]; D25): 0 mm^3 (3×) and 126 mm^3 and 24 mm^3 and 180 mm^3 and 74 mm^3 and 216 mm^3 | Mean tumour volume ([1]; D25): 79 mm^3 | Median tumour volume ([1]; D25): 74 mm^3 | Individual tumour volume ([1]; D29): 0 mm^3 (2×) and 322 mm^3 and 27 mm^3 and 48 mm^3 and 225 mm^3 and 146 mm^3 and 385 mm^3 | Mean tumour volume ([1]; D29): 151 mm^3 | Median tumour volume ([1]; D29): 146 mm^3 | Individual tumour volume ([1]; D32): 0 mm^3 (2×) and 501 mm^3 and 27 mm^3 and 15 mm^3 and 275 mm^3 and 180 mm^3 and 644 mm^3 | Mean tumour volume ([1]; D32): 221 mm^3 | Median tumour volume ([1]; D32): 180 mm^3 | Individual tumour volume ([1]; D36): 0 mm^3 (3×) and 653 mm^3 and 87 mm^3 and 363 mm^3 and 182 mm^3 and 784 mm^3 | Mean tumour volume ([1]; D36): 278 mm^3 | Median tumour volume ([1]; D36): 182 mm^3 | Individual tumour volume ([1]; D39): 0 mm^3 (3×) and 784 mm^3 and 210 mm^3 and 315 mm^3 and 182 mm^3 and 1200 mm^3 and 546 mm^3 | Mean tumour volume ([1]; D39): 360 mm^3 | Median tumour volume ([1]; D39): 210 mm^3 | Individual tumour volume ([1]; D43): 0 mm^3 (3×) and 1171 mm^3 and 420 mm^3 and 631 mm^3 and 393 mm^3 and 1403 mm^3 and 731 mm^3 | Mean tumour volume ([1]; D43): 528 mm^3 | Median tumour volume ([1]; D43): 420 mm^3 | Individual tumour volume ([1]; D46): 0 mm^3 (3×) and 1683 mm^3 and 598 mm^3 and 504 mm^3 and 275 mm^3 and 1650 mm^3 and 518 mm^3 | Mean tumour volume ([1]; D46): 581 mm^3 | Median tumour volume ([1]; D46): 504 mm^3 | Individual tumour volume ([1]; D49): 0 mm^3 (3×) and 1870 mm^3 and 1188 mm^3 and 784 mm^3 and 655 mm^3 and 2646 mm^3 and 945 mm^3 | Mean tumour volume ([1]; D49): 899 mm^3 | Median tumour volume ([1]; D49): 784 mm^3 | Anti-tumour activity (in words) ([1]; carboplatin study, comparator as stated in the sentence): significant anti-tumour activity; also recorded: anti-tumour effect greater than carboplatin; also recorded: exerts anti-tumour activity | T/C ratio ([1]; relative to Control group, D11 (before treatment)): 88% | T/C ratio ([1]; relative to Control group, D14): 52% | T/C ratio ([1]; relative to Control group, D18): 33% | T/C ratio ([1]; relative to Control group, D22): 18% | T/C ratio ([1]; relative to Control group, D25): 17% | T/C ratio ([1]; relative to Control group, D29): 23% | T/C ratio ([1]; relative to Control group, D32): 18% | T/C ratio ([1]; relative to Control group, D36): 12% | T/C ratio ([1]; relative to LFB-R565, after D18 up to D36): less than 26% | T/C ratio ([1]; relative to LFB-R565 group, D11 (before treatment)): 99% | T/C ratio ([1]; relative to LFB-R565 group, D14): 55% | T/C ratio ([1]; relative to LFB-R565 group, D18): 41% | T/C ratio ([1]; relative to LFB-R565 group, D22): 26% | T/C ratio ([1]; relative to LFB-R565 group, D25): 18% | T/C ratio ([1]; relative to LFB-R565 group, D29): 21% | T/C ratio ([1]; relative to LFB-R565 group, D32): 26% | T/C ratio ([1]; relative to LFB-R565 group, D36): 10% | T/C ratio ([1]; relative to carboplatin group, D11 (before treatment)): 99% | T/C ratio ([1]; relative to carboplatin group, D14): 63% | T/C ratio ([1]; relative to carboplatin group, D18): 64% | T/C ratio ([1]; relative to carboplatin group, D22): 26% | T/C ratio ([1]; relative to carboplatin group, D25): 31% | T/C ratio ([1]; relative to carboplatin group, D29): 41% | T/C ratio ([1]; relative to carboplatin group, D32): 39% | T/C ratio ([1]; relative to carboplatin group, D36): 29% | T/C ratio ([1]; relative to carboplatin group, D39): 32% | T/C ratio ([1]; relative to carboplatin group, D43): 48% | T/C ratio ([1]; relative to carboplatin group, from D22 to D39): less than 42% | T/C ratio ([1]; relative to control, after D18 (from D22) up to D36): less than 23% | Affinity for AMHR-II (in words) [2]: affinity far better than that of the unmutated humanized 12G4 antibody

Source: patent publication US10179816B2, “Pharmaceutical compositions comprising an antibody which binds the human anti-Müllerian hormone receptor type II” (LABORATOIRE FRANCAIS DU FRACTIONNEMENT DES BIOTECHNOLOGIES, priority 2011, dated 2019)
